Consider 2 compounds from US11485980B2, “Method of meristem excision and transformation” (Monsanto Technology LLC, priority 2007, dated 2022).

In assay [1] the test system is cotton explants. The experiment in a line: Selection of transformed cotton explants with selective agent in tissue culture medium.
For assay [2], the system named is cotton explants. The experiment in a line: Spectinomycin in co-cultivation medium during Agrobacterium-mediated transformation. Particulars: spectinomycin 50-100 ppm included in the co-cultivation medium; FIG. 8. As to the method:
After the PlantconTM was closed, it was inserted into an appropriately sized holder, which was placed into a sonicator (e.g. L&R Ultrasonics QS140; L&R Manufacturing Co., […].; or a Honda […] sonicator, Honda, Denshi Japan). […] Sigma 526-36-23; Sigma Chemical Co, St. Louis, Mo.). After up to 5 min of sonication, the PlantconTM was placed securely on a shaker at 65-70 rpm or higher for 10 min for incubation. After inoculation, the Agrobacterium inoculum was removed from the PlantconTM. […] The INO medium may also be supplemented with plant growth regulators such as gibberellins (GA3), auxins (e.g. NAA, IBA, IAA, 2,4-D, dicamba, etc), cytokinins (e.g.

Turning to `COc1c(Cl)ccc(Cl)c1C(=O)O` [dicamba], in the assay with cotton explants [1] (selection agent in tissue culture medium, machine excised cotton explants after Agrobacterium co-cultivation), the “Stably transformed plants produced at concentrations (ppm)” value is recorded as 0.3 ppm.
Take `CN[C@@H]1[C@H](O)[C@H](NC)[C@H]2O[C@@]3(O)C(=O)C[C@@H](C)O[C@H]3O[C@@H]2[C@H]1O` [spectinomycin]: the “Appearance of non-transformed tissues under selection” value in the assay with cotton explants [1] (spectinomycin selection, transformed tissues green and properly developing, FIG. 5) is “bleached and often malformed”. In addition, the “Effect on transformation frequency (TF)” value in the assay on cotton explants [2] is reported as “enhanced TF”.
